For 11 compounds, IC50 results are on record in patent publication US20240116985A1, “STAPLED PEPTIDES AND METHODS THEREOF” (priority 2020, published 2024).

Usually IC50 stands for the concentration that gives 50% inhibition.

The structures appear in SMILES notation.

The target of this experiment is T1, full-length beta-Catenin (Uniprot ID P35222) (Homo sapiens, UniProt P35222).
T1 construct: 10 nM full-length beta-Catenin (Uniprot ID P35222)
T1 sequence (P35222 1-781): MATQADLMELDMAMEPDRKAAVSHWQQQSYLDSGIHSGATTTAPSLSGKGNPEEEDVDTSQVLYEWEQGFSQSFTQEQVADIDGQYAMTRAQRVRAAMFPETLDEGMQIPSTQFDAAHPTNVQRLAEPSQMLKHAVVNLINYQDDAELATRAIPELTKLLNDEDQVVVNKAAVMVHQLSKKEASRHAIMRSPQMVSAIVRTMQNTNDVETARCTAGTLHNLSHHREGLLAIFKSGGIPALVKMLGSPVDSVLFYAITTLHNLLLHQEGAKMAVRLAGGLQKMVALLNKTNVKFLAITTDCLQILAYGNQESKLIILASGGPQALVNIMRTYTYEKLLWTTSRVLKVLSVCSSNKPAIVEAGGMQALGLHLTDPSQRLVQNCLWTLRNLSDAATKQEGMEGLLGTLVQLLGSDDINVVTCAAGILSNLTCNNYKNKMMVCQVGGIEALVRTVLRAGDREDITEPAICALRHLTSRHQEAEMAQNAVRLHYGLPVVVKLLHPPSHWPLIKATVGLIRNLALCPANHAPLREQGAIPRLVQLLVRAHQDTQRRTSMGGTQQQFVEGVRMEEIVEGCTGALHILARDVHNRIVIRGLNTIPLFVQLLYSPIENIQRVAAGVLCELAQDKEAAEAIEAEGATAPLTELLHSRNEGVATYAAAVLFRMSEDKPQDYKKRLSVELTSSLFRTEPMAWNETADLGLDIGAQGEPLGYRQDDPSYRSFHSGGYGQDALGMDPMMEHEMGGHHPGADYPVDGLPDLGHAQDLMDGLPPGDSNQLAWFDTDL
Briefly: Fluorescence polarization IC50 (beta-catenin / 5FAM-TCF4 10-53 competition). The format is binding. Particulars: fluorescence polarization; read-out: beta-Catenin FP IC50.
Turning to `CC(=O)N1CCC[C@]12CC=CCCCCC1(CCCCC=CCCCOC(=O)N3CC[C@@](C(=O)N[C@@H](Cc4ccccc4C(F)(F)F)C(=O)N[C@@H](Cc4csc5ccccc45)C(=O)N[C@@H](CCC(N)=O)C(N)=O)(C3)NC(=O)[C@H](CC(C)C)NC(=O)[C@H](Cc3ccccc3)NC(=O)[C@H](C)NC(=O)[C@H](C)NC(=O)[C@H](Cc3cccc(C(=O)O)c3)NC(=O)[C@H](CC(=O)O)NC1=O)NC(=O)[C@H](CC(C)(C)C)NC(=O)[C@H](CC(=O)O)NC2=O` (stereo partly drawn) [I-2512, Ac-PL3-Asp-Npg-B6-Asp-3COOHF-Ala-Ala-Phe-Leu-PyrS2-2F3MeF-BztA-Gln-NH2], the IC50 came to 0.245 µM.

For `CC(=O)N1CCC[C@]12CC=CCCCCC1(CCCCC=CCCCOC(=O)N3CC[C@@](C(=O)N[C@@H](Cc4ccccc4C(F)(F)F)C(=O)N[C@@H](Cc4csc5ccccc45)C(=O)N[C@@H](CCC(N)=O)C(N)=O)(C3)NC(=O)[C@H](CC(C)C)NC(=O)[C@H](Cc3ccccc3)NC(=O)[C@H](C)NC(=O)[C@H](C)NC(=O)[C@H](Cc3cccc(C(=O)O)c3)NC(=O)[C@H](CC(=O)O)NC1=O)NC(=O)[C@H](CC(C)(C)C)NC(=O)[C@H](CC(=O)O)NC2=O` (stereo partly drawn) [I-2514, Ac-PL3-Asp-Npg-B6-Asp-3COOHF-Ala-Ala-Phe-Leu-PyrS2-2F3MeF-BztA-Gln-NH2], the IC50 worked out at 0.074 µM.

Regarding `CC(=O)N1CCC[C@]12CC=CCCCCC1(CCCCC=CCCCOC(=O)N3CC[C@@](C(=O)N[C@@H](Cc4ccccc4C(F)(F)F)C(=O)N[C@@H](Cc4csc5ccccc45)C(=O)N[C@@H](C)C(N)=O)(C3)NC(=O)[C@H](CC(C)C)NC(=O)[C@H](Cc3ccccc3)NC(=O)[C@H](C)NC(=O)[C@H](CCC(N)=O)NC(=O)[C@H](Cc3cccc(C(=O)O)c3)NC(=O)[C@H](CC(=O)O)NC1=O)NC(=O)[C@H](CC(C)(C)C)NC(=O)[C@H](CC(=O)O)NC2=O` (stereo partly drawn) [I-2516, Ac-PL3-Asp-Npg-B6-Asp-3COOHF-Gln-Ala-Phe-Leu-PyrS2-2F3MeF-BztA-Ala-NH2], the 50% inhibitory concentration (IC50) was found to be 0.209 µM.

`CC(=O)N1CCC[C@]12CC=CCCCCC1(CCCCC=CCCOC(=O)N3CC[C@@](C(=O)N[C@@H](Cc4ccccc4C(F)(F)F)C(=O)N[C@@H](Cc4csc5ccccc45)C(=O)N[C@@H](C)C(N)=O)(C3)NC(=O)[C@H](CC(C)C)NC(=O)[C@H](Cc3ccccc3)NC(=O)[C@H](C)NC(=O)[C@H](CCC(N)=O)NC(=O)[C@H](Cc3cccc(C(=O)O)c3)NC(=O)[C@H](CC(=O)O)NC1=O)NC(=O)[C@H](CC(C)(C)C)NC(=O)[C@H](CC(=O)O)NC2=O` (stereo partly drawn) [I-2519, Ac-PL3-Asp-Npg-B6-Asp-3COOHF-Gln-Ala-Phe-Leu-PyrS1-2F3MeF-BztA-Ala-NH2]: the IC50 worked out at 0.094 µM.

In the case of `CC(=O)N1CCC[C@]12CC=CCCCC1(CCCC=CCCCOC(=O)N3CC[C@@](C(=O)N[C@@H](Cc4ccccc4)C(=O)N[C@@H](Cc4csc5ccccc45)C(=O)N[C@@H](CC(=O)N4CCOCC4)C(N)=O)(C3)NC(=O)[C@H](CC(C)C)NC(=O)[C@H](Cc3ccccc3)NC(=O)[C@H](C)NC(=O)[C@H](CCCCNS(C)(=O)=O)NC(=O)[C@H](CCC(N)=O)NC(=O)[C@H](CC(=O)O)NC1=O)NC(=O)[C@H](CC1CCCCC1)NC(=O)[C@H](CC(N)=O)NC2=O` (stereo partly drawn) [I-2524, Ac-PL3-Asn-Cha-B5-Asp-Gln-[MeSO2]Lys-Ala-Phe-Leu-PyrS2-Phe-BztA-MorphAsn-NH2], the IC50 was determined as 0.609 µM.

`CC(=O)N1CCC[C@]12CC=CCCCC1(CCCC=CCCCOC(=O)N3CC[C@@](C(=O)N[C@@H](Cc4ccccc4)C(=O)N[C@@H](Cc4csc5ccccc45)C(=O)N[C@@H](CC(=O)N4CCOCC4)C(N)=O)(C3)NC(=O)[C@H](CC(C)C)NC(=O)[C@H](Cc3ccccc3)NC(=O)[C@H](C)NC(=O)[C@H](CCCCNC(=O)C(F)(F)F)NC(=O)[C@H](CCC(N)=O)NC(=O)[C@H](CC(=O)O)NC1=O)NC(=O)[C@H](CC1CCCCC1)NC(=O)[C@H](CC(N)=O)NC2=O` (stereo partly drawn) [I-2525, Ac-PL3-Asn-Cha-B5-Asp-Gln-[CF3CO]Lys-Ala-Phe-Leu-PyrS2-Phe-BztA-MorphAsn-NH2]: the IC50 was 4.29 µM.

On to `CC(=O)N1CCC[C@]12CC=CCCCC1(CCCC=CCCCOC(=O)N3CC[C@@](C(=O)N[C@@H](Cc4ccccc4)C(=O)N[C@@H](Cc4csc5ccccc45)C(=O)N[C@@H](CC(=O)N4CCOCC4)C(N)=O)(C3)NC(=O)[C@H](CC(C)C)NC(=O)[C@H](Cc3ccccc3)NC(=O)[C@H](C)NC(=O)[C@H](CCCCNC(=O)CCN(C)C)NC(=O)[C@H](CCC(N)=O)NC(=O)[C@H](CC(=O)O)NC1=O)NC(=O)[C@H](CC1CCCCC1)NC(=O)[C@H](CC(N)=O)NC2=O` (stereo partly drawn) [I-2528, Ac-PL3-Asn-Cha-B5-Asp-Gln-[Me2Npr]Lys-Ala-Phe-Leu-PyrS2-Phe-BztA-MorphAsn-NH2], for which the IC50 is 0.61 µM.

Regarding `CC(C)C[C@@H]1NC(=O)[C@H](Cc2ccccc2)NC(=O)[C@H](C)NC(=O)[C@H](C)NC(=O)[C@H](Cc2cccc(C(=O)O)c2)NC(=O)[C@H](CC(=O)O)NC(=O)C2(CCCCCCCCOC(=O)N3CC[C@@](C(=O)N[C@@H](Cc4ccccc4C(F)(F)F)C(=O)N[C@@H](Cc4csc5ccccc45)C(=O)N[C@@H](CCC(N)=O)C(N)=O)(C3)NC1=O)CCCCCC[C@@]13CCCN1C(=O)CCCCCC[C@H](NC(=O)[C@H](CC(=O)O)NC3=O)C(=O)N2` (stereo partly drawn) [I-2529, 5hexenyl-PL3-Asp-AllylGly-B5-Asp-3COOHF-Ala-Ala-Phe-Leu-PyrS2-2F3MeF-BztA-Gln-NH2], the 50% inhibitory concentration (IC50) is 0.153 µM.

In the case of `CC(C)C[C@@H]1NC(=O)[C@H](Cc2ccccc2)NC(=O)[C@H](C)NC(=O)[C@H](C)NC(=O)[C@H](Cc2cccc(C(=O)O)c2)NC(=O)[C@H](CC(=O)O)NC(=O)C2(CCCCCCCCOC(=O)N3CC[C@@](C(=O)N[C@@H](Cc4ccccc4C(F)(F)F)C(=O)N[C@@H](Cc4csc5ccccc45)C(=O)N[C@@H](CCC(N)=O)C(N)=O)(C3)NC1=O)CCCCCC[C@@]13CCCN1C(=O)CCCCC[C@H](NC(=O)[C@H](CC(=O)O)NC3=O)C(=O)N2` (stereo partly drawn) [I-2530, 4pentenyl-PL3-Asp-AllylGly-B5-Asp-3COOHF-Ala-Ala-Phe-Leu-PyrS2-2F3MeF-BztA-Gln-NH2], the IC50 was determined as 0.102 µM.

For the compound `CCCC[C@@H]1NC(=O)[C@H](CC(=O)O)NC(=O)[C@]2(CCCCCCC3(CCCCCCCCOC(=O)N4CC[C@@](C(=O)N[C@@H](Cc5ccccc5C(F)(F)F)C(=O)N[C@@H](Cc5csc6ccccc56)C(=O)N[C@@H](CCC(N)=O)C(N)=O)(C4)NC(=O)[C@H](CC(C)C)NC(=O)[C@H](Cc4ccccc4)NC(=O)[C@H](C)NC(=O)[C@H](C)NC(=O)[C@H](Cc4cccc(C(=O)O)c4)NC(=O)[C@H](CC(=O)O)NC3=O)NC1=O)CCCN2C(C)=O` (stereo partly drawn) [I-2531, Ac-PL3-Asp-nLeu-B5-Asp-3COOHF-Ala-Ala-Phe-Leu-PyrS2-2F3MeF-BztA-Gln-NH2], the half-maximal inhibitory concentration (IC50) turned out to be 0.179 µM.

As for `CC(=O)N1Cc2cccc(c2)OCC=CCCCC2(CCCC=CCCCOC(=O)N3CC[C@@](C(=O)N[C@@H](Cc4ccsc4)C(=O)N[C@@H](Cc4csc5ccccc45)C(=O)N[C@@H](CCC(N)=O)C(N)=O)(C3)NC(=O)[C@H](CC(C)C)NC(=O)[C@H](Cc3ccccc3)NC(=O)[C@H](C)NC(=O)[C@H](C)NC(=O)[C@H](CN(CC(=O)O)CC(F)(F)F)NC(=O)[C@H](CC(=O)O)NC2=O)NC(=O)[C@H](CC(C)(C)C)NC(=O)[C@@H]1CC(=O)O` (stereo partly drawn) [I-2550, Bn3OAllyl-AcAsp-Npg-B5-Asp-TfeGA-Ala-Ala-Phe-Leu-PyrS2-3Thi-BztA-Gln-NH2], the IC50 worked out at 1.72 µM.
